Measured values taken from EPA's ToxValDB 9.5 (doi:10.2903/j.efsa.2016.4453).
Several values for one entry are separate records, joined by “and”; a condition that tells them apart may be missing. Identical values can stand only once.

What was measured:
Anas platyrhynchos = conditions: acute; oral; unspecified; mortality
Apis mellifera = conditions: acute, mortality
Canidae = conditions: chronic; duration: 1 years; oral; Dog Other; body weight
Coturnix japonica = conditions: acute; oral; mortality
Folsomia candida = conditions: chronic/long-term; duration: 28 days; reproduction
Oncorhynchus mykiss = conditions: acute; duration: 96 hours; mortality
Plant = conditions: chronic/long-term; duration: 6 weeks
Salmo trutta ssp. fario = conditions: chronic/long-term; duration: 28 days; growth
Typhlodromus pyri = assay: LR50; higher = less toxic; conditions: not reported; mortality

`COC(=O)c1ccc(I)cc1S(=O)(=O)[N-]C(=O)Nc1nc(C)nc(OC)n1.[Na+]` [Iodosulfuron methyl ester sodium salt] gave an LD50 (Anas platyrhynchos) of over 2000 mg/kg, an LD50 (Apis mellifera; duration: 48 hours, dermal) of over 100 µg/piece and an LD50 (Apis mellifera; duration: 72 hours, oral, unspecified) of over 70 µg/piece. It also gave an NOAEL (Canidae) of 7 mg/kg-day, an LD50 (Colinus virginianus; acute, oral, mortality) of over 2000 mg/kg and an NOEL (Colinus virginianus; reproduction developmental, reproduction) of 78 mg/kg-day. It also gave an LD50 (Coturnix japonica) of over 2000 mg/kg, an NOEC (Folsomia candida) of 316 mg/kg and an LC50 (Oncorhynchus mykiss) of 0.684 µg/mL. For the same molecule, the NOAEC (Plant) was 0.27 µg/L and 0.16 µg/L, the LD50 (Rattus norvegicus; acute, Wistar, mortality) was 2680 mg/kg and the NOAEL (Rattus norvegicus; chronic, duration: 2 years, F, Wistar, body weight) was 3.91 mg/kg-day. It also gave an NOAEL (Rattus norvegicus; chronic, duration: 2 years, M, Wistar, body weight) of 2.96 mg/kg-day, an NOAEL (Rattus norvegicus; chronic, duration: 2 years, body weight) of 3 mg/kg-day and an NOAEL (Rattus norvegicus; developmental, development) of 315 mg/kg-day. It also gave an NOEC (Salmo trutta ssp. fario) of 7.79 mg/L and an LR50 (Typhlodromus pyri) of over 30.3 g/ha.
